Measured values from ChEMBL document CHEMBL1201862, “PubChem BioAssay data set” (2004).
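Step 1: Grow cells in 96-well plates. Step 2: Expose to compound for 48 hours at 5 concentrations. Step 3: Interpolate endpoints linearly; if unreached, use highest concentration. GI50 is the concentration that inhibits growth by half.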 Active and inactive are the calls of the source. Cut-off read from the data, not from the text of the source: active = GI50 up to about 1.1 µM and inactive = higher.

Assays:
Experiment in all cases: NCI-60 cell line screen, 48 h
[1] = system: Hs-578T
[2] = system: MDA-N
[3] = system: M19-MEL
[4] = system: DLD-1
[5] = system: LXFL 529
[6] = system: DMS-114
[7] = system: DMS-273
[8] = system: XF498

Compound	GI50 [1]	GI50 [2]	GI50 [4]	also measured
CC(C)(C)O/N=C/c1cc(NC(=S)c2ccccc2)ccc1Cl	22.5 µM (inactive)	14.2 µM (inactive)		
CC1C2(C)OCC(C#N)(C(=N)O2)C1(C#N)C#N (centres undefined)	17.9 µM (inactive)	18.3 µM (inactive)		
CCCc1cc(COC)c(C#N)c(O)n1	> 100 µM (inactive)	> 100 µM (inactive)		
CC(C)(C)c1c2c(c(C(C)(C)C)c3c1OCN(Cc1ccccc1)C3)OCN(Cc1ccccc1)C2	20.4 µM (inactive)	11.7 µM (inactive)		
Cc1ncc(CSc2ccccc2N)c(CO)c1O	> 100 µM (inactive)	> 100 µM (inactive)		
CCOC(=O)CCC(NC(=O)c1ccc(Nc2nc3ccccc3nc2C(=O)OCC)cc1)C(=O)OCC (centres undefined)	3.1 µM (inactive)	3.89 µM (inactive)		
COc1cc(OC)c2ssc3c(OC)cc(OC)c4ssc1c2-c43			> 100 µM (inactive)	GI50 [3]: > 100 µM (inactive); GI50 [5]: > 100 µM (inactive); GI50 [6]: > 100 µM (inactive); GI50 [7]: > 100 µM (inactive); GI50 [8]: > 100 µM (inactive)
CCCCCCCCCCCCCCCCNc1cccc2ccccc12			> 100 µM (inactive)	GI50 [3]: > 100 µM (inactive); GI50 [5]: > 100 µM (inactive); GI50 [6]: > 100 µM (inactive); GI50 [7]: > 100 µM (inactive)
O=C1OC(c2ccccc2)=N/C1=C/NC(Cc1ccc(O)cc1)C(=O)O (centres undefined)			> 100 µM (inactive)	GI50 [5]: > 100 µM (inactive); GI50 [6]: > 100 µM (inactive); GI50 [7]: > 100 µM (inactive); GI50 [8]: > 100 µM (inactive)
CCOC(=O)c1c(Br)c(-c2ccc(OC)cc2)c(Br)n1C	11.6 µM (inactive)			
C=CCC1(Sc2ccccn2)Sc2ccc3ccccc3c2-c2c(ccc3ccccc23)S1	> 100 µM (inactive)			
CCC1([N+](=O)[O-])CC2C=CC1C2 (centres undefined)	> 100 µM (inactive)	> 100 µM (inactive)		
COc1ccc(CCCNC(=O)Cc2cc(OC)c(OC)cc2CO)cc1OC	> 100 µM (inactive)	> 100 µM (inactive)		
NNc1cnn(-c2ccccc2)c(=O)c1Cl			> 100 µM (inactive)	GI50 [3]: > 100 µM (inactive); GI50 [5]: > 100 µM (inactive); GI50 [6]: > 100 µM (inactive); GI50 [7]: > 100 µM (inactive)
C/C(CCn1[nH]c(=O)ccc1=O)=N\OCCCc1ccccc1			> 100 µM (inactive)	GI50 [3]: > 100 µM (inactive); GI50 [5]: > 100 µM (inactive); GI50 [6]: > 100 µM (inactive); GI50 [7]: > 100 µM (inactive); GI50 [8]: > 100 µM (inactive)
O=c1[nH]c2cc(C(F)(F)F)ccc2nc1Cc1ccccc1	34.9 µM (inactive)			
O=C(Nc1ccc(Cl)cc1Cl)C1C(=O)C(=O)N(c2ccc(Cl)cc2Cl)C1=O (centres undefined)			> 100 µM (inactive)	GI50 [3]: > 100 µM (inactive); GI50 [5]: > 100 µM (inactive); GI50 [6]: > 100 µM (inactive)

Compound	GI50 [1]	GI50 [2]	GI50 [4]	also measured
Cc1cn(C2CC(O)C(Cn3cc(Cn4ncc(=O)[nH]c4=O)nn3)O2)c(=O)[nH]c1=O (centres undefined)	> 100 µM (inactive)	> 100 µM (inactive)		
N#CC1C(=O)N(c2ccccc2)NC12OC(=O)c1ccncc12 (centres undefined)		> 20 µM (inactive)		
CCOC(=O)C1=C(C(=O)c2ccc(C)cc2)C(c2cccc([N+](=O)[O-])c2)C(C(=O)c2ccc(C)cc2)=C(C(=O)OCC)N1	22 µM (inactive)			
O=C(NCc1ccccc1)c1cc2ccccc2o/c1=N\c1ccccc1F	32.1 µM (inactive)	34.8 µM (inactive)		
O=C(NCCCNCCNC(=O)c1cc(-c2ccccc2)nc2ccccc12)c1cc(-c2ccccc2)nc2ccccc12	2.37 µM (inactive)	1.87 µM (inactive)		
CC(C)NC(=O)OCCN=C1c2ccccc2C(Br)C(Br)c2ccccc21 (centres undefined)	8.41 µM (inactive)	5.85 µM (inactive)		
CSC1(SC)CCCCCCCCCCC1	43.1 µM (inactive)	42.8 µM (inactive)		
CCc1nc(N)nc(N)c1-c1ccc2nnn(O)c2c1	> 100 µM (inactive)	> 100 µM (inactive)		
NC1=CN(Cc2ccccc2)C2=N/C(=C\c3ccccc3)C(=O)N12	> 100 µM (inactive)			
NC(=O)N=C(NCc1ccccc1)NCc1ccccc1			> 100 µM (inactive)	GI50 [5]: > 100 µM (inactive); GI50 [7]: > 100 µM (inactive)
Clc1cccc(C2N3CCCCC3[C@@H]3c4[nH]c5ccccc5c4CCN23)c1 (some centres undefined)			30.3 µM (inactive)	GI50 [3]: 20.1 µM (inactive); GI50 [6]: 20.6 µM (inactive); GI50 [7]: 30.1 µM (inactive); GI50 [8]: 20.9 µM (inactive)
Fc1ccc(F)c(C2SCc3nc4ccccc4n32)c1 (centres undefined)			> 100 µM (inactive)	GI50 [3]: 48.2 µM (inactive); GI50 [5]: 53.3 µM (inactive); GI50 [6]: 23.5 µM (inactive); GI50 [7]: 20.5 µM (inactive)
Nc1nc(N)c2nc(CNc3ccc(C(=O)NC(CCC(=O)O)C(=O)O)cc3F)cnc2n1 (centres undefined)	> 100 µM (inactive)	< 0.01 µM (active)		
CCOC(=O)N1CC2(C)C=CC1C(C(=O)OC)C2 (centres undefined)	> 100 µM (inactive)	> 100 µM (inactive)		
CCOC(=O)/C=C1\Nc2ccccc2-n2nnnc21			> 100 µM (inactive)	GI50 [3]: > 100 µM (inactive); GI50 [5]: > 100 µM (inactive); GI50 [6]: > 100 µM (inactive); GI50 [7]: 30.3 µM (inactive)
O=c1c2ccccc2c2c1c1c3ccccc3c(=O)c1c1c3ccccc3c(=O)c21	> 100 µM (inactive)	> 100 µM (inactive)		
